Columns and labels:
[1] = system: FLC PDX cells; experiment: Validation screen on cells dissociated from FLC PDX; assay type: cell-based, human; details: for Effect on FLC PDX cells in vitro (dose response, normalized percent survival): 10nM-10μM, FLC1-6; for Efficacy ranking in the screen: ranked by average −log10EC50 for FLC1-5 minus −log10EC50 for PHH; for Therapeutic window for FLC over PHH: FLC PDX cells compared with PHH
[2] = system: cells dissociated directly from patient tumors (FLC.T6-T11); experiment: Direct from patient in vitro screening; assay type: cell-based, human; details: for Sensitivity of cells tested directly from patients: 10μM-10nM, 72h, Cell Titer Glo
[3] = system: FLC1 cells; experiment: Role of ROS: survival with or without N-acetyl cysteine 10mM; assay type: cell-based, human; details: NAC 10mM, 72 h
[4] = system: cells dissociated from PDX FLC1 and FLC5; experiment: Primary high throughput screen, 1μM, 72 h; assay type: cell-based, human; details: pass = survival <60%
[5] = system: primary human hepatocytes (PHH); experiment: Validation counter-screen on primary human hepatocytes; details: 72 h; for Effect on PHH (dose response, normalized percent survival): up to 10 μM

Structure (SMILES) | Result in primary screen (normalized percent survival) [4] | further results
COc1cc(Nc2ncc3c(n2)-c2ccc(Cl)cc2C(c2c(F)cccc2OC)=NC3)ccc1C(=O)O [alisertib] |  | Effect on FLC PDX cells in vitro (dose response, normalized percent survival) ([1]; 72 h): no effect
CC(C)c1c2cc(-c3ccnc(NC4CCC(NC5CCOCC5)CC4)n3)ccc2nn1C (stereo not drawn) [LY2857785] |  | Sensitivity of cells tested directly from patients [2]: some sensitivity; Effect of N-acetyl cysteine (NAC) on the toxicity of the drug [3]: mildly attenuated
Cn1c(=O)c(F)c(Nc2ccc(I)cc2F)c2c(=O)n(C[C@@H](O)CO)cnc21 [TAK-733] | None | 
CCC[C@H](NC(=O)/C(C#N)=C/c1cccc(Br)n1)c1ccccc1 [degrasyn] | did not see any effect | 
N#CC(=C(/N)Sc1ccccc1N)/C(C#N)=C(/N)Sc1ccccc1N [U0126] | None | 
O=P1(NCCCl)OCCCN1CCCl (stereo not drawn) [ifosfamide] | no to minimal activity | 
CC(C)C[C@H](NC(=O)CNC(=O)c1cc(Cl)ccc1Cl)B1OC(=O)C(CC(=O)O)(CC(=O)O)O1 [MLN9708] | did not see any effect | 
CC1(C)C=C(CN2C/C(=C\c3ccc(F)cc3)C(=O)/C(=C/c3ccc(F)cc3)C2)C(C)(C)N1O [HO3867] |  | Effect on FLC PDX cells in vitro (dose response, normalized percent survival) ([1]; 72 h): no effect
CCc1c2c(nc3ccc(OC(=O)N4CCC(N5CCCCC5)CC4)cc13)-c1cc3c(c(=O)n1C2)COC(=O)[C@]3(O)CC [irinotecan] |  | Effect on FLC PDX cells in vitro (dose response, normalized percent survival) ([1]; 72 h): no effect
CN(NC(=O)CC(=O)NN(C)C(=S)c1ccccc1)C(=S)c1ccccc1 [Elesclomol] |  | Efficacy ranking in the screen [1]: sixth
CN(C)Cc1cccc(N/C(=C2\C(=O)Nc3cc(C(=O)N(C)C)ccc32)c2ccccc2)c1 [BIX02189] | None | 
N#Cc1ccc(C(c2ccc(C#N)cc2)n2cncn2)cc1 [letrozole] | did not pass our primary screen | 
C[C@]12CCC(=O)C(O)=C1CC[C@@H]1[C@@H]2CC[C@]2(C)C(=O)CC[C@@H]12 [formestane] | did not pass our primary screen | 
O=C(NOC[C@H](O)CO)c1ccc(F)c(F)c1Nc1ccc(I)cc1F [mirdametinib] | None | 
COc1cc([C@@H]2c3cc4c(cc3[C@@H](O[C@@H]3O[C@@H]5CO[C@@H](C)O[C@H]5[C@H](O)[C@H]3O)[C@H]3COC(=O)[C@H]23)OCO4)cc(OC)c1O [etoposide] | no to minimal activity | 
CC(C)C[C@H](NC(=O)[C@H](Cc1ccccc1)NC(=O)c1cnccn1)B(O)O [bortezomib] | did not see any effect | 
Clc1ccc(N/N=C(\c2ccccc2)c2ccccn2)nc1 [JIB-04] |  | Effect on FLC PDX cells in vitro (dose response, normalized percent survival) ([1]; 72 h): effective against all PDX lines; Efficacy ranking in the screen [1]: second; EC50 ([1]; read-out: EC50 against FLC PDX in vitro, across all FLC PDX lines, 72 h): 20 to 200 nM; EC50 ([5]; read-out: EC50 PHH): > 10000 nM
N#C/C(=C(/N)Sc1ccc(N)cc1)c1ccccc1C(F)(F)F [SL-327] | None | 
Cc1cc(I)ccc1Nc1c(C(=O)NOCC2CC2)cc(F)c(F)c1F [PD198306] | None | 

Structure (SMILES) | Result in primary screen (normalized percent survival) [4] | further results
N.N.O=C([O-])C1(C(=O)[O-])CCC1.[Pt+2] [carboplatin] | no to minimal activity | 
CONC(=O)[C@H]1[C@@H](O)[C@@]2(O)c3c(OC)cc(OC)cc3O[C@@]2(c2ccc(OC)cc2)[C@@H]1c1ccccc1 [CR-1-31-B] |  | Effect on PHH (dose response, normalized percent survival) [5]: no effect; Sensitivity of cells tested directly from patients [2]: sensitive
Cc1cc(OCc2nnc(SC3CCCC3)n2-c2cccnc2)ccc1-c1ccc(S(C)(=O)=O)cc1 [NMS873] |  | Efficacy ranking in the screen [1]: 72
CNC(=O)c1cccc(-c2ccc3c(N4CCOC[C@@H]4C)nc(N4CCOC[C@@H]4C)nc3n2)c1 [AZD2014] |  | Therapeutic window for FLC over PHH [1]: no therapeutic window
CC(C)C[C@H](NC(=O)[C@@H](NC(=O)c1cccc(-c2ccccc2)n1)[C@@H](C)O)B(O)O [delanzomib] | did not see any effect | 
COc1ccc(-c2ccc3ncc4c(c3c2)n(-c2ccc(N3CCNCC3)c(C(F)(F)F)c2)c(=O)n4C)cn1 [NVP-BGT226] |  | Effect on FLC PDX cells in vitro (dose response, normalized percent survival) ([1]; 72 h): potency against all FLC PDX
N.N.[Cl][Pt][Cl] [cisplatin] | no to minimal activity | 
CNC(=O)Nc1ccc(-c2nc(N3CC4CCC(C3)O4)c3cnn(C4CCC5(CC4)OCCO5)c3n2)cc1 [WYE-125132] |  | Therapeutic window for FLC over PHH [1]: no therapeutic window
C=C1C[C@@H]2[C@H](CC[C@]3(C)C(=O)CC[C@@H]23)[C@@]2(C)C=CC(=O)C=C12 [exemestane] | did not pass our primary screen | 
CNC(=O)c1cc(Oc2ccc(NC(=O)Nc3ccc(Cl)c(C(F)(F)F)c3)c(F)c2)ccn1 [regorafenib] |  | Therapeutic window for FLC over PHH [1]: no therapeutic window
CCc1c2c(nc3ccc(O)cc13)-c1cc3c(c(=O)n1C2)COC(=O)[C@]3(O)CC [SN-38] |  | Effect on FLC PDX cells in vitro (dose response, normalized percent survival) ([1]; 72 h): effective only against FLC1,3,4; Efficacy ranking in the screen [1]: 13; Sensitivity of cells tested directly from patients [2]: sensitive; Drug sensitivity of FLC.T6 compared with derived PDX FLC6 (EC50) ([2]; cells direct from patient tumor vs cells from its PDX): correlated well; Effect of N-acetyl cysteine (NAC) on the toxicity of the drug [3]: no effect
O=C(NOCC1CC1)c1ccc(F)c(F)c1Nc1ccc(I)cc1Cl [PD184352] | None | 
COc1cccc(-c2cc(=O)c3ccccc3o2)c1N [PD98059] | None | 
CC(=O)O/N=C1\C(=O)N(Cc2cc(Cl)ccc2Cl)c2ccc(Cl)cc21 [LDN-57444] | did not see any effect | 
COc1cc(C[C@H]2C(=O)OC[C@@H]2Cc2ccc(OC)c(OC)c2)ccc1O [arctigenin] | None | 
COc1cccc2cc(-c3nc([C@H]4CC[C@H](C(=O)O)CC4)n4ncnc(N)c34)[nH]c12 [OSI-027] |  | Therapeutic window for FLC over PHH [1]: no therapeutic window
CC(C)(C#N)c1cc(Cn2cncn2)cc(C(C)(C)C#N)c1 [anastrozole] | did not pass our primary screen | 
CC(C)C[C@H](NC(=O)CNC(=O)c1cc(Cl)ccc1Cl)B(O)O [ixazomib] | did not see any effect | 
N#Cc1ccc(C2CCCc3cncn32)cc1 (stereo not drawn) [fadrozole] | did not pass our primary screen | 

Structure (SMILES) | Result in primary screen (normalized percent survival) [4] | further results
Cc1cc(C(=O)NOCCO)c(Nc2ccc(I)cc2F)n(C)c1=O [AZD8330] | None | 
COc1ccc(S(=O)(=O)Nc2cc(-c3c(O)ccc4ccccc34)c(O)c3ccccc23)cc1 [C188-9] |  | Effect on FLC PDX cells in vitro (dose response, normalized percent survival) ([1]; 72 h): no effect
CCc1cnn2c(NCc3ccc[n+]([O-])c3)cc(N3CCCC[C@H]3CCO)nc12 [dinaciclib] |  | Effect on PHH (dose response, normalized percent survival) [5]: toxic; Sensitivity of cells tested directly from patients [2]: some sensitivity
Nc1ccn([C@@H]2O[C@H](CO)[C@@H](O)C2(F)F)c(=O)n1 [gemcitabine] | no to minimal activity | 
COc1ccc(-c2nc(N3CCOCC3)c3sc(CN(C)c4ncc(C(=O)NO)cn4)cc3n2)cn1 [fimepinostat] |  | Effect on FLC PDX cells in vitro (dose response, normalized percent survival) ([1]; 72 h): affected FLC1,3,4; Efficacy ranking in the screen [1]: 22
CNC(=O)c1cc(Oc2ccc(NC(=O)Nc3ccc(Cl)c(C(F)(F)F)c3)cc2)ccn1 [Sorafenib] |  | Therapeutic window for FLC over PHH [1]: no therapeutic window
O=C(NC[C@H](O)CO)c1ccncc1Nc1ccc(I)cc1F [pimasertib] | None | 
Cn1cnc2c(F)c(Nc3ccc(Br)cc3Cl)c(C(=O)NOCCO)cc21 [selumetinib] | None | 
C#Cc1cccc(Nc2ncnc3cc(OCCOC)c(OCCOC)cc23)c1 [Erlotinib] |  | Effect on FLC PDX cells in vitro (dose response, normalized percent survival) ([1]; 72 h): no effect
CC(=O)c1cc([N+](=O)[O-])c(Sc2cccc(Cl)c2Cl)s1 [P5091] |  | Efficacy ranking in the screen [1]: 38
CC(C)(C)OC(=O)N[C@H]1CCCCC/C=C\[C@@H]2C[C@@]2(C(=O)NS(=O)(=O)C2CC2)NC(=O)[C@@H]2C[C@@H](OC(=O)N3Cc4cccc(F)c4C3)CN2C1=O [danoprevir] | did not see any effect | 
O=c1[nH]cc(F)c(=O)[nH]1 [fluorouracil] | no to minimal activity | 
CN(C)Cc1cccc(N/C(=C2\C(=O)Nc3cc(C(N)=O)ccc32)c2ccccc2)c1 [BIX02188] | None | 
Cc1c(CN2CCN(C(=O)[C@H](C)O)CC2)sc2c(N3CCOCC3)nc(-c3cnc(N)nc3)nc12 [GDC0980] |  | Therapeutic window for FLC over PHH [1]: no therapeutic window
CC1(C)CCC(c2ccc(Cl)cc2)=C(CN2CCN(c3ccc(C(=O)NS(=O)(=O)c4ccc(N[C@H](CCN5CCOCC5)CSc5ccccc5)c(S(=O)(=O)C(F)(F)F)c4)cc3)CC2)C1 [navitoclax] |  | Efficacy ranking in the screen [1]: fifth; Efficacy ranking in the screen ([1]; listed as Navitoclax): 5
O=C1[O][Pt]2([NH][C@@H]3CCCC[C@H]3[NH]2)[O]C1=O [oxaliplatin] | no to minimal activity | 
O=C(c1ccc(F)c(F)c1Nc1ccc(I)cc1F)N1CC(O)([C@@H]2CCCCN2)C1 [cobimetinib] | None | 
COc1ccc(C[C@H](NC(=O)[C@H](C)NC(=O)CN2CCOCC2)C(=O)N[C@@H](Cc2ccccc2)C(=O)C2(C)CO2)cc1 (stereo in doubt) [ONX-0914] | did not see any effect | 
Cn1cnc2c(F)c(Nc3ccc(Br)cc3F)c(C(=O)NOCCO)cc21 [binimetinib] | None | 

Reference: paper PMC8734228 (Cancer discovery, 2021)
